For assay [1], the system named is Jurkat cell line. The experiment in a line: In vitro transfection with pRSVLuc (luciferase) condensed on peptides. In kind it is cell-based. The following applies: peptide 2 μg/μg plasmid DNA. As for the experimental part: After incubation the cells are lysed and are assayed for gene expression. In the case of the luciferase reporter gene, luciferin and ATP are added to lysed cells and the light emitted is measured with a luminometer (see deWet et al., supra).
Cell lines such as Jurkat and K562 grow in suspension and can be transfected and the level of transgene expression (luciferase activity) determined b) the following method. Cells are harvested on the day of assay by centrifugation at 1200 rpm for 5 mins at room temperature. The cell pellet is resuspended in phosphate buffered saline and re-centrifuged. This operation is performed twice. […] The cells are then aliquoted into tubes and 0.75 ml of RPMI medium added, followed by 0.04-0.08 ml of 100 mM Chloroquine and finally 0.25 ml of DNA-complex solution. The transfection is then allowed to proceed by incubating the cells at 37° C. for 4 h. After this time the cells are harvested by centrifugation at 2000 rpm. The cells are then suspended in 1 ml of RPMI medium and re-centrifuged. Finally the cells are suspended in 0.5 ml RPMI medium containing 10% foetal bovine serum. Each 0.5 ml of transfected cell suspension is transferred to a well of a 12 well plastic culture plate containing 1.5 ml of RPMI 10% FBS. The original transfection tube is rinsed with a further 1 ml of medium and the wash transferred to the culture dish making a final volume of 3 ml. The culture plate is then incubated at 37° C. for 24-90 h in an atmosphere of 5% CO2. The contents of each well in the culture dish are transferred to centrifuge tubes and the cells collected by centrifugation at 13000 rpm. The pellet is resuspended in 0.12 ml of Lysis Buffer (100 mM sodium phosphate, pH 7.8; 8 mM magnesium chloride, 1 mM EDTA; 1% Triton X-100 and 15% glycerol) and agitated with a pipette. The lysate is centrifuged at 13000 rpm for 1 min and the supernatant collected. 80 μl of the supernatant are transferred to a luminometer tube. The luciferase activity is then assayed using a Berthold Lumat L9501 luminometer. The assay buffer used is Lysis Buffer containing 10 mM Luciferin and 100 mM ATP. Light produced by the luciferase is integrated over 4s and is described as relative light units (RLU). The data are converted to RLU/ml of lysate, RLU/cell or RLU/mg protein (protein concentration of the lysate having been determined in this case by the BioRAD Lowry assay.
In order to compare the relative efficiency of transfection of complexes composed of different NBC condensation peptides or poly-L-lysine, pRSVLuc DNA at a concentration of 100 μg/ml was condensed using peptide at a ratio of 2 μg/μg plasmid DNA as described herein with the following deviation: prior to addition to the cells (Jurkat cell line) the complexes were diluted to 20 μg/ml with 10% PEG 10 000; 37 mM sodium chloride; 25 mM sodium phosphate, pH 7.4. The cells were assayed for luciferase after 24 h.

For assay [2], the system named is plasmid nucleic acid pRSVLuc. The assay can be described thus: Surface plasmon resonance (BIAcore) binding kinetics of peptides/conjugates to immobilized biotinylated plasmid DNA. The following applies: SPR, PBS, 25° C. As for the experimental part:
In the examples described below, SPR was detected using the BIAcore system. This machine contained an SPR detector and an integrated microfluidic cartridge which is engineered such that an analyte solution (cationic peptide) is continuously passed over the sensor chip. The sensor chip consists of a glass plate coated with a thin film of gold covered in a layer of carboyxymethyl dextran. The chip used has a dextran layer to which streptavidin is covalently attached. The chip is prepared for use by adding biotinylated nucleic acid which will be bound to the chip via the streptavidin-biotin interaction, and the same chip is used in a series of experiments.
As material binds to the immobilized nucleic acid molecule on the sensor chip, the SPR angle of plane polarized light shining on the surface of the chip is monitored by the detector. Changes in angle are defined as resonance units (RU) and data are collected every second. Background effects are detected and automatically subtracted by the use of a control flow cell in line with the nucleic acid flow cell.
A typical sensorgram has three phases: an association phase, an equilibrium phase and a dissociation phase (see FIG. 1). The rise in signal occurs as more peptide binds to the immobilized plasmid DNA until equilibrium conditions are reached. The height of the peak is directly proportional to the mass of peptide bound. If the flow continues with buffer containing no peptide, peptide begins to dissociate from the complex and the resonance signal is reduced. The sensorgram can be used to compute apparent rate constants for each of the three individual processes.
(1) dC/dt=ka [PF ] [Pmax -PB ]-kd [PB ]
Measurement of Binding Kinetics by Surface Plasmon Resonance
A 6 kilobase (kb) plasmid DNA (pRSVLuc) was biotinylated using photoactivatable biotin (Pierce and Warriner) as per manufacturer's instructions.
A sensor chip with immobilized streptavidin (SA5) was conditioned following manufacturer's instructions, i.e., three one-minute injections of 1 M NaCl: 50 mM NaOH followed by one 1 min injection of 0.5% SDS. Flow rate on the BlAcore sensing device was 20 μl per min, running buffer was phosphate buffered saline (PBS). Flow path was flow cells 1 and 2.
The flow path was switched to flow cell 2 only and the flow rate was reduced to 10 μl per minute. Biotinylated plasmid at a concentration of […] in 0.5M NaCl was injected for 3 mins.
Phosphate buffered saline was used as running buffer at a flow rate of 20 μl per minute. The flow path was over flow cells 1 and 2. Flow cell 1 was used as a reference cell. The experiments were carried out at a temperature of 25° C.
Peptides were injected at various concentrations for three minutes. The injection was followed by a 5 min dissociation phase before the injection port was washed. The sensor chip was regenerated by the injection of 2M NaCl for 1 min. If necessary, this injection was repeated to bring the response back down to baseline before the next peptide sample was injected.
The data was analysed using the methods described in the handbook (BIAevaluation 2.1. Software Handbook, Pharmacia Biosensor AB, Uppsala, Sweden).
Essentially the plots were evaluated as follows: The dissociation constant, kd, was determined first. A curve or family of curves (same NBC at different concentrations) were plotted as response (Y) versus time as Ln (Yo/Y) versus time. In the area where the Ln(Yo/Y) curve was linear, a fit of the default dissociation model [AB]=[A]+[B] was made. The association constant, ka, was then calculated by fitting the related association model on that part of the association curve where a plot of In(abs(dY/dt) versus time was linear. KD were approximated by dividing the calculated kd with the calculated ka.

* marks the point of attachment. Acm = CC(=O)NC*

Take “NH2-KKSPKKAKKPAAKKSPKKAKKPAAKKSPKKAKKPAYC(Acm)-COOH (H-KKSPKKAKKPAAKKSPKKAKKPAAKKSPKKAKKPAYC(Acm)-OH; SMILES CC(=O)NCSC[C@H](NC(=O)[C@H](Cc1ccc(O)cc1)NC(=O)[C@H](C)NC(=O)[C@@H]1CCCN1C(=O)[C@H](CCCCN)NC(=O)[C@H](CCCCN)NC(=O)[C@H](C)NC(=O)[C@H](CCCCN)NC(=O)[C@H](CCCCN)NC(=O)[C@@H]1CCCN1C(=O)[C@H](CO)NC(=O)[C@H](CCCCN)NC(=O)[C@H](CCCCN)NC(=O)[C@H](C)NC(=O)[C@H](C)NC(=O)[C@@H]1CCCN1C(=O)[C@H](CCCCN)NC(=O)[C@H](CCCCN)NC(=O)[C@H](C)NC(=O)[C@H](CCCCN)NC(=O)[C@H](CCCCN)NC(=O)[C@@H]1CCCN1C(=O)[C@H](CO)NC(=O)[C@H](CCCCN)NC(=O)[C@H](CCCCN)NC(=O)[C@H](C)NC(=O)[C@H](C)NC(=O)[C@@H]1CCCN1C(=O)[C@H](CCCCN)NC(=O)[C@H](CCCCN)NC(=O)[C@H](C)NC(=O)[C@H](CCCCN)NC(=O)[C@H](CCCCN)NC(=O)[C@@H]1CCCN1C(=O)[C@H](CO)NC(=O)[C@H](CCCCN)NC(=O)[C@@H](N)CCCCN)C(=O)O) [NBC13]”: the “rank in order of relative transfection efficiency (most to least efficient)” value in assay [1] (luciferase after 24 h, FIG. 7) is reported as “NBC11>NBC13>NBC8>>NBC15>>>polylysine”.

On to H-TKKKKKKKKKKKKKKKKKKC-OH [NBC14], for which the “transfection compared with polydisperse poly-L-lysine” value in assay [1] (luciferase) is “significantly better transfection agents than the polydisperse poly-L-lysine”. In assay [2] (apparent rate constant for association), the ka was 211000 M⁻¹ s⁻¹. Also, the kd in assay [2] (apparent rate constant for dissociation) is 0.00075 s⁻¹.
